Patent US7378232B2 (priority 2002, dated 2008)

Test system: yeast cells not expressing the P protein
Test: Nigericin effect on yeast cell viability, cells without P protein
Format: cell-based
Settings: Saccharomyces cerevisiae, data not shown

| Compound | IC50 [µM] |
| --- | --- |
| CO[C@@H]1C[C@@H](C[C@H]2CC[C@H](C)[C@H]([C@@H](C)C(=O)O)O2)O[C@]2(O[C@](C)([C@H]3CC[C@@](C)([C@@H]4O[C@@H]([C@H]5O[C@@](O)(CO)[C@H](C)C[C@@H]5C)C[C@@H]4C)O3)C[C@H]2C)[C@@H]1C [nigericin] | 25 |

Test system: yeast cells expressing the P protein
Test: Nigericin effect on yeast cell viability, P protein-expressing cells
Format: cell-based
Settings: Saccharomyces cerevisiae, data not shown

| Compound | IC50 [µM] |
| --- | --- |
| CO[C@@H]1C[C@@H](C[C@H]2CC[C@H](C)[C@H]([C@@H](C)C(=O)O)O2)O[C@]2(O[C@](C)([C@H]3CC[C@@](C)([C@@H]4O[C@@H]([C@H]5O[C@@](O)(CO)[C@H](C)C[C@@H]5C)C[C@@H]4C)O3)C[C@H]2C)[C@@H]1C [nigericin] | 3 |

Test system: P protein-expressing yeast cells and control yeast cells
Test: Selenite exposure of yeast: colony size and red precipitate formation
Format: cell-based
Settings: 10-50 mM selenite in agar, 30° C. for 3 days, FIG. 3B
Experimental: In another experiment, P protein-expressing yeast cells and control yeast cells were exposed to various concentrations of selenite. The toxic affect of selenite in yeast is believed to be due to DNA damage. The major mode of selenite detoxification appears to be its reduction by glutathione to elementary selenium that accumulates as a red precipitate in the cell vacuole (Pinson et al. Molecular Microbiology 36:679-687(2000)).
10 mM, 20 mM, 30 mM, 40 mM, and 50 mM selenite solutions were prepared in 55° C. selective medium-agar and plated in duplicate into 24-well plates. Actively growing yeast cultures were diluted to A600 values of 0.001, and then 10 μl aliquots were spotted in duplicate onto the selenite-containing agar medium. Plates were incubated at 30° C. for 3 days. […]

| Compound | red precipitate accumulation in P-expressing cells vs control cells | selenite sensitivity, cells expressing a P protein versus control cells |
| --- | --- | --- |
| O=[Se](O)O [selenite] | accumulate more red precipitate | no difference |

Test system: yeast cells expressing / not expressing the P protein (strain SH3866)
Test: not given
Format: cell-based
Settings: not given

| Compound | yeast colony size, P protein-expressing vs non-expressing colonies exposed to the compound |
| --- | --- |
| [Sb] [ANTIMONY, antimony] | do not reach the same size |

Same assay, conditions: 24-well selective medium-agar, 30° C. for 3 days, FIG. 3A

| Compound | yeast colony size, P protein-expressing vs non-expressing colonies exposed to the compound |
| --- | --- |
| arsenate | do not reach the same size |
| arsenic trioxide | do not reach the same size |

Test system: wild-type melan-a melanocytes (A) and P-null melanocytes (P)
Test: not given
Format: cell-based
Settings: not given

| Compound | TOXIN S[…] CHANGE (as a function of P protein expression) | TOXIN S[…] (as a function of P protein expression) |
| --- | --- | --- |
| C=CCC(N)C(=O)O (stereo not shown) [ALLYLGLYCINE, allylglycine] | ✓ | – |
| C[C@@H]1[C@H](O)[C@@H](C)/C=C/C=C/C=C/C=C/C=C/C=C/C=C/[C@H](O[C@@H]2O[C@H](C)[C@@H](O)[C@H](N)[C@@H]2O)C[C@@H]2O[C@](O)(C[C@@H](O)C[C@@H](O)[C@H](O)CC[C@@H](O)C[C@@H](O)CC(=O)O[C@H]1C)C[C@H](O)[C@H]2C(=O)O [AMPHOTERICIN, amphotericin] | ✓ | – |
| [Sb] [ANTIMONY, antimony] | – | ✓ |
| CO/C1=C\C(C)=C\[C@@H](C)[C@@H](O)[C@@H](C)C/C(C)=C/C=C/[C@H](OC)[C@@H]([C@@H](C)[C@@H](O)[C@H](C)[C@@]2(O)C[C@@H](O)[C@H](C)[C@@H](C(C)C)O2)OC1=O [BAFILOMYCIN Al, bafilomycin A1] | – | ✓ |
| CCCCS(=N)(=O)CCC(N)C(=O)O (stereo not shown) [BUTHIONINE SULFOXIMINE (BSO), buthionine sulfoximine] | – | ✓ |
| [Cd] [CADMIUM, cadmium] | – | ✓ |
| CCN(CC)CCCC(C)Nc1ccnc2cc(Cl)ccc12 (stereo not shown) [CHLOROQUINE, chloroquine] | – | ✓ |
| N.N.[Cl][Pt][Cl] [CISPLATIN, cisplatin] | – | ✓ |
| C[C@@H]1C[C@@H]([C@H](O)CC2CC(=O)NC(=O)C2)C(=O)[C@@H](C)C1 [CYCLOHEXIMIDE, cycloheximide] | – | ✓ |
| COc1cccc2c1C(=O)c1c(O)c3c(c(O)c1C2=O)C[C@@](O)(C(=O)CO)C[C@@H]3O[C@H]1C[C@H](N)[C@H](O)[C@H](C)O1 [DOXORUBICIN, doxorubicin] | – | ✓ |
| C=C(CC)C(=O)c1ccc(OCC(=O)O)c(Cl)c1Cl [ETHACRYNIC ACID, ethacrynic acid] | – | ✓ |
| N#CC(C#N)=NNc1ccc(OC(F)(F)F)cc1 [FCCP, carbonyl cyanide p-trifluoromethoxyphenylhydrazone] | – | ✓ |
| O=S(=O)([O-])[O-].[Fe+2] [IRON SULFATE (FESO4), iron sulfate (FeSO4)] | – | ✓ |
| CC[C@H]1/C=C/C=C/C[C@@H](C)[C@H](O)[C@@](C)(O)C(=O)[C@@H](C)[C@H](O)[C@@H](C)C(=O)[C@@H](C)[C@H](O)[C@@H](C)/C=C/C(=O)O[C@@H]2[C@H](C)[C@H](CC1)O[C@]1(CC[C@H](C)[C@H](C[C@@H](C)O)O1)[C@H]2C [OLIGOMYCIN, oligomycin] | – | ✓ |
| COc1cc(NC(C)CCCN)c2ncccc2c1 (stereo not shown) [PRIMAQUINE, primaquine] | ✓ | – |
| O=[Se](=O)(O)O [SELENATE, selenate] | – | ✓ |
| CC(C)[C@@H]1NC(=O)[C@H](C)OC(=O)[C@@H](C(C)C)NC(=O)[C@@H](C(C)C)OC(=O)[C@H](C(C)C)NC(=O)[C@H](C)OC(=O)[C@@H](C(C)C)NC(=O)[C@@H](C(C)C)OC(=O)[C@H](C(C)C)NC(=O)[C@H](C)OC(=O)[C@@H](C(C)C)NC(=O)[C@@H](C(C)C)OC1=O [VALINOMYCIN, valinomycin] | – | ✓ |
| CC[C@]1(O)C[C@@H]2CN(CCc3c([nH]c4ccccc34)[C@@](C(=O)OC)(c3cc4c(cc3OC)N(C)[C@H]3[C@@](O)(C(=O)OC)[C@H](OC(C)=O)[C@]5(CC)C=CCN6CC[C@]43[C@@H]65)C2)C1 [VINBLASTINE, vinblastine] | – | ✓ |
| arsenate | – | ✓ |
| arsenic trioxide | – | ✓ |
| arsenite | – | ✓ |
